Experimental data as given in patent publication US20120178738A1, “DIBENZO [B,F] [1,4]OXAZAPINE COMPOUNDS” (ARYX THERAPEUTICS, INC., priority 2007, published 2012).

How the values were obtained:
pig liver esterase = assay: Metabolism by pig liver esterase with and without human plasma proteins; format: in vitro ADME
Experimental: The esterase-mediated metabolism of these compounds was studied using commercially available pig liver esterase in the presence and absence of human plasma proteins. The disappearance of parent was monitored over the time course of the incubations using a LC-UV detection system.
A stock solution and working stock solution was prepared for each proprietary compound as described for the human liver microsomal incubations. Working solutions of pig liver esterase in potassium phosphate buffer (10 mM, pH 7.4) and pig liver esterase in human plasma protein were prepared by dissolving pig liver esterase (2.51 mg) in the phosphate buffer or plasma protein solutions, respectively.
A set of three Eppendorf microfuge tubes (1.5 mL) was appropriately labeled. To each tube was added 1.5 mL of phosphate buffer, pig liver esterase in buffer, or pig liver esterase in human plasma protein solution. These solutions were pre-incubated (37° C., 900 rpm) and the reactions were initiated by adding an aliquot (37.5 μL) of the working solution of proprietary compound to each tube. An aliquot (100 μL) from each tube was removed at time 0, 5, 30, 60, and 120 min and added to a tube containing acetonitrile (200 μL) to stop the reaction.
The samples were centrifuged at 14000 g for 15 minutes at 4° C. The supernatant was transferred to clean labeled HPLC injection vials and stored at −80° C. until analyzed. An aliquot of the supernatant (25 μL) was injected onto the LC-UV system for analysis.

[1] = Metabolism in pooled human liver microsomes; format: in vitro ADME; settings: for HLMs Enzyme: enzyme type metabolising the compound in HLMs (with/without NADPH); for half-life: pH 7.4, pooled human liver microsomes, disappearance of parent, read-out: HLMs t1/2
Experimental: Compounds were incubated in pooled human liver microsomes (HLMs) in the presence or absence of an NADPH-generating system. NADPH is required for the activity of cytochrome P450 (CYP) and other oxidative enzymes present in HLMs, but not for esterase activity. An additional incubation was carried out in the absence of HLM to assess compound stability. The disappearance of parent and the appearance of the corresponding acid metabolite were monitored over the time course of the incubations using LC-MS/MS.
A stock solution (20 mM) of each proprietary compound in DMSO was prepared and stored at −20° C. until needed. A working stock solution (0.2 mM) was prepared for each proprietary compound by adding an aliquot of the stock solution (10 μL) to acetonitrile (990 μL).
An aliquot of the HLM solution was removed from the −80° C. freezer and placed on ice. Tris Buffer (50 mM, pH 7.4) containing MgCl2 (hexahydrate, 5 mM) was pre-incubated in a 37° C. water bath. A set of Eppendorf microfuge tubes (1.5 mL) was appropriately labeled. To each tube was added Tris buffer with or without the NADPH generating system. An aliquot of pooled HLMs was added to all the incubations except those that were the buffer control.
Tubes were preincubated for 5 min in a shaking incubator bath (37° C., 900 rpm) and the reaction was initiated by adding an aliquot of the proprietary working solution (5 μL). The additions were timed carefully in order to coordinate the sample collections below. A small aliquot (50 μL) was removed at […] and delivered to the respective tubes containing dextrorphan (100 μL of 0.5 μg/mL solution) dissolved in methanol or acetonitrile. The samples were centrifuged at 14000 g for 15 minutes at 4° C. The supernatant was transferred to clean labeled HPLC injection vials and stored at −80° C. until analyzed. An aliquot of the supernatant (25 μL) was added to water (75 μL), mixed and injected onto the LC-MS/MS system for analysis. Results for some compounds of the invention can be found below in the table in Example 20.

human 5HT7 receptors = target: T1, human 5HT7 receptors (Homo sapiens, UniProt P34969); assay: h5-HT7 receptor radioligand binding ([3H]5-CT); settings: pKi reported on a scale of 1 through 5; read-out: 5HT7 (pKi) (converted)
T1 construct: expressed in transfected cells; host or cells: Chinese hamster ovary cells (membranes)
T1 sequence (P34969 whole entry): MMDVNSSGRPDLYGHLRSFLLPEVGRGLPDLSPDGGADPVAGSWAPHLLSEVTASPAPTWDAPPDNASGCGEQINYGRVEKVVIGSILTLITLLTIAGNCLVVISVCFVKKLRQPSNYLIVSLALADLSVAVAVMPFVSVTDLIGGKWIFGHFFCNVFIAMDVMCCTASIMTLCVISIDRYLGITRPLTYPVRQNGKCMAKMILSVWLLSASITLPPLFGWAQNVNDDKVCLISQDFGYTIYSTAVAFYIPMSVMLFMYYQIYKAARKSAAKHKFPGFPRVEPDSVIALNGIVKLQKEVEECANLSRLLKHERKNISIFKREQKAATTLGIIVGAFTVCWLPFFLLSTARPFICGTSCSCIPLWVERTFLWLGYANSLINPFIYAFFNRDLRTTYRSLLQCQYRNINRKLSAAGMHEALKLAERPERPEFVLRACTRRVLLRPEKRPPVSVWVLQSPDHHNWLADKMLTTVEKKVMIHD
Outline: (§1)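 Displacement of one fixed radioligand concentration by graded test compound concentrations was measured in receptor-bearing tissue or plasma membrane fractions at equilibrium. Filtration removed displaced radioligand. Concentration-response data, after subtracting nonspecific binding measured with a reference blocker, were used to derive affinity.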

human M3 receptors = target: T2, human M3 receptors (Homo sapiens, UniProt P20309); assay: hM3 receptor radioligand binding ([3H]NMS); settings: for Ki: pKi reported on a scale of 1 through 5, read-out: M3 (pKi) (converted); for affinity to M3 receptors: in words
T2 construct: expressed in transfected cells; host or cells: Chinese hamster ovary cells (membranes)
T2 sequence (P20309 whole entry): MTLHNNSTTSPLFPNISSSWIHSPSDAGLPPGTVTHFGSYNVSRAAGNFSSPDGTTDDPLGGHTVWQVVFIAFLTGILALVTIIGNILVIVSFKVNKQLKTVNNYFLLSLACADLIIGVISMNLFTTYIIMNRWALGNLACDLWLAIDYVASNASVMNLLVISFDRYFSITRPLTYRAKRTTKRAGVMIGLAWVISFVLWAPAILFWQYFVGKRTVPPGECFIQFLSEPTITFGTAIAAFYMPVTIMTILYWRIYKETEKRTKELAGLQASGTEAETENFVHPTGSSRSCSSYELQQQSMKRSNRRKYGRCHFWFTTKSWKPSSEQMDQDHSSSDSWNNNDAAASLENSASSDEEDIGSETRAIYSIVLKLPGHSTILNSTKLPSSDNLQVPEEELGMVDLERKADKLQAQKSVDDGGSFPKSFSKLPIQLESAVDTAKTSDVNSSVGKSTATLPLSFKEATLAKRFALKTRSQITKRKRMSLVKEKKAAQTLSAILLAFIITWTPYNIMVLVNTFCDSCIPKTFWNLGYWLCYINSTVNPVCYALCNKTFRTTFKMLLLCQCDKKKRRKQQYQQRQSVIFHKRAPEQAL
Outline: as §1

[2] = system: NMDA antagonist-induced deficits in prepulse inhibition in rats; assay: Prepulse inhibition (PPI), NMDA antagonist (PCP)-induced deficit; settings: ip 45 min before, PCP 1.5 mg/kg s.c.
[3] = system: apomorphine-induced disruption of swimming in mice; assay: Antagonism of apomorphine-induced disruption of swimming in mice; format: in vivo
From the text: The antagonism of apomorphine-induced disruption of swimming in mice (Warawa, E. J. et al. (2001). Behavioral approach to nondyskinetic dopamine antagonists: identification of seroquel. J. Med. Chem., 44, 372-389) was used to assess test compounds. Apomorphine-treated mice fail to swim and remain in place, pawing the walls of the swimming chamber, or making abortive swims. Certain atypical antipsychotic compounds “normalize” the swimming behavior of such mice.
The animals (Swiss Webster, female, about 20 g; Charles River) were administered compounds of the invention (0.1 μg/kg-30 mg/kg ip) […] before they were dosed with apomorphine HCl at 1.25 mg/kg sc. Twenty seven minutes after test compound injection, and fifteen minutes after apomorphine injection, each mouse was placed into a circular swimming tank for 2 minutes and the number of “swims” were counted. The height of the tank is 15 cm and the diameter is 28 cm. A circular obstacle, 10.5 cm in diameter and 17 cm high was placed in the center of the tank creating a circular swimming channel 8.75 cm wide. The water level is 5.5 cm and the water was kept at room temperature (about 20° C.). Marks are placed on the floor and side of the tank 180 degrees apart. A “swim” was scored each time a mouse swims from one mark to the other and the median number of swims for all the mice was used as the score for that treatment.

[4] = pig liver esterase in potassium phosphate buffer, pH 7.4, pig liver esterase in phosphate buffer, no plasma protein
[5] = pig, pig liver esterase in human plasma protein solution

O=C(C[C@H]1CN(C2=Nc3cc(Cl)ccc3Oc3ccccc32)CCN1)O[C@H]1CCOC1 [EQ, (S)-tetrahydrofuran-3-yl 2-((S)-4-((E)-8-chlorodibenzo[b,f][1,4]oxazepin-11-yl)piperazin-2-yl)acetate]
half-life at 4.9 µM (pig liver esterase; [4]): 5 min | half-life at 4.9 µM (pig liver esterase; [5]): 30 min | HLMs Enzyme [1]: Esterase | half-life [1]: 15 min

CCC(C)OC(=O)C[C@H]1CN(C2=Nc3cc(Cl)ccc3Oc3ccccc32)CCN1C (stereo partly drawn) [DY, sec-butyl 2-((S)-4-((E)-8-chlorodibenzo[b,f][1,4]oxazepin-11-yl)-1-methylpiperazin-2-yl)acetate]
Ki (human 5HT7 receptors): > 10 µM | Ki (human M3 receptors): > 10 µM | half-life at 4.9 µM (pig liver esterase; [4]): < 5 min | half-life at 4.9 µM (pig liver esterase; [5]): 30 min | HLMs Enzyme [1]: Esterase | half-life [1]: < 5 min

O=C(O)C[C@H]1CN(C2=Nc3cc(Cl)ccc3Oc3ccccc32)CCN1 [Compound Q, (S,E)-2-(4-(8-chlorodibenzo[b,f][1,4]oxazepin-11-yl)piperazin-2-yl)acetic acid]
affinity to M3 receptors (human M3 receptors): very low affinity | Ki (human M3 receptors): > 10 µM | NMDA antagonist-induced deficits in prepulse inhibition [2]: Restore | reversal of apomorphine-induced disruption of swimming ([3]; 3 and 10 mg/kg): reversed

O=C(C[C@H]1CN(C2=Nc3cc(Cl)ccc3Oc3ccccc32)CCN1)OC1CCCC1 [DR, (S,E)-cyclopentyl 2-(4-(8-chlorodibenzo[b,f][1,4]oxazepin-11-yl)piperazin-2-yl)acetate]
Ki (human 5HT7 receptors): 1.58 to 3.89 µM | Ki (human M3 receptors): > 10 µM | half-life at 4.9 µM (pig liver esterase; [4]): < 5 min | half-life at 4.9 µM (pig liver esterase; [5]): 15 min | HLMs Enzyme [1]: Esterase | half-life [1]: 30 min

CCOC(=O)C[C@H]1CN(C2=Nc3cc(Cl)ccc3Oc3ccccc32)CCN1 [Compound K, (S,E)-ethyl 2-(4-(8-chlorodibenzo[b,f][1,4]oxazepin-11-yl)piperazin-2-yl)acetate]
Ki (human 5HT7 receptors): 0.631 to 1.55 µM | affinity to M3 receptors (human M3 receptors): very low affinity | Ki (human M3 receptors): > 10 µM | NMDA antagonist-induced deficits in prepulse inhibition [2]: Restore | antagonizing the apomorphine-induced disruption of swimming, potency vs clozapine ([3]; ip, apomorphine HCl 1.25 mg/kg sc): more potent than clozapine

CCOC(=O)CC1CN(C2=Nc3ccc(F)cc3Oc3ccccc32)CCN1 (centres unmarked) [J, (E)-ethyl 2-(4-(7-fluorodibenzo[b,f][1,4]oxazepin-11-yl)piperazin-2-yl)acetate]
Ki (human M3 receptors): > 10 µM | half-life at 4.9 µM (pig liver esterase; [4]): < 5 min | half-life at 4.9 µM (pig liver esterase; [5]): 15 min | HLMs Enzyme [1]: Esterase | half-life [1]: 10 min

CC(C)OC(=O)CC1CN(C2=Nc3cc(Cl)ccc3Oc3ccccc32)CCN1 (centres unmarked) [L, (E)-isopropyl 2-(4-(8-chlorodibenzo[b,f][1,4]oxazepin-11-yl)piperazin-2-yl)acetate]
Ki (human M3 receptors): > 10 µM | half-life at 4.9 µM (pig liver esterase; [4]): < 5 min | half-life at 4.9 µM (pig liver esterase; [5]): 30 min | half-life [1]: 30 min

CN1CCN(C2=Nc3cc(Cl)ccc3Oc3ccccc32)C[C@@H]1CC(=O)NCC(F)(F)C(F)(F)F [EU, (S,E)-2-(4-(8-chlorodibenzo[b,f][1,4]oxazepin-11-yl)-1-methylpiperazin-2-yl)-N-(2,2,3,3,3-pentafluoropropyl)acetamide]
Pig Liver Esterase (t1/2 min.) (+) plasma (pig liver esterase; pig liver esterase in human plasma protein solution): Stable | Pig Liver Esterase (t1/2 min.) (−) plasma (pig liver esterase; pig liver esterase in phosphate buffer, no plasma protein): Stable | half-life [1]: 60 min

CCOC(=O)C[C@H]1CN(C2=Nc3cc(Cl)ccc3Oc3ccccc32)CCN1CCC(C)C [ER, (S,E)-ethyl 2-(4-(8-chlorodibenzo[b,f][1,4]oxazepin-11-yl)-1-isopentylpiperazin-2-yl)acetate]
half-life at 4.9 µM (pig liver esterase; [4]): < 5 min | half-life at 4.9 µM (pig liver esterase; [5]): 60 min | HLMs Enzyme [1]: Esterase | half-life [1]: 5 min

CCOC(=O)CC1CN(C2=Nc3cc(Cl)ccc3Oc3ccccc32)CCN1 (centres unmarked) [A, (E)-ethyl 2-(4-(8-chlorodibenzo[b,f][1,4]oxazepin-11-yl)piperazin-2-yl)acetate]
Ki (human M3 receptors): > 10 µM | half-life at 4.9 µM (pig liver esterase; [4]): < 5 min | half-life at 4.9 µM (pig liver esterase; [5]): 15 min | HLMs Enzyme [1]: Esterase | half-life [1]: 30 min

O=C(C[C@H]1CN(C2=Nc3cc(Cl)ccc3Oc3ccccc32)CCN1)OC1CCOCC1 [DV, (S,E)-tetrahydro-2H-pyran-4-yl 2-(4-(8-chlorodibenzo[b,f][1,4]oxazepin-11-yl)piperazin-2-yl)acetate]
Ki (human 5HT7 receptors): 1.58 to 3.89 µM | Ki (human M3 receptors): > 10 µM | half-life at 4.9 µM (pig liver esterase; [4]): < 5 min | half-life at 4.9 µM (pig liver esterase; [5]): 15 min | HLMs Enzyme [1]: Esterase | half-life [1]: 60 min

CC(C)OC(=O)CC1CN(C2=Nc3ccc(F)cc3Oc3ccccc32)CCN1 (centres unmarked) [M, (E)-isopropyl 2-(4-(7-fluorodibenzo[b,f][1,4]oxazepin-11-yl)piperazin-2-yl)acetate]
Ki (human M3 receptors): > 10 µM | half-life at 4.9 µM (pig liver esterase; [4]): < 5 min | half-life at 4.9 µM (pig liver esterase; [5]): 15 min | half-life [1]: 30 min
